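Where inhibition never reached the appropriate level, the endpoint shown equals the highest concentration tested. Otherwise, values were interpolated linearly from a five-concentration, 48-hour dose response in 96-well plates. Abbreviation: GI50, concentration required for 50% inhibition of growth.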 Active and inactive are the calls of the source. No stated cut-off is given here; in the data, active = GI50 up to about 1.1 µM and inactive = higher.
Experiments:
Experiment in all cases: NCI tumour cell line growth inhibition, 48 h
ACHN = tested on: ACHN
UACC-257 = tested on: UACC-257
M19-MEL = tested on: M19-MEL
DU-145 = tested on: DU-145
DMS-114 = tested on: DMS-114
K562 = tested on: K562
NCI-H23 = tested on: NCI-H23
CCRF-CEM = tested on: CCRF-CEM
HOP-18 = tested on: HOP-18
Malme-3M = tested on: Malme-3M
SF-295 = tested on: SF-295
KM-20L2 = tested on: KM-20L2
LXFL 529 = tested on: LXFL 529
BT-549 = tested on: BT-549
MDA-MB-435 = tested on: MDA-MB-435
SN12C = tested on: SN12C
SNB-19 = tested on: SNB-19
OVCAR-3 = tested on: OVCAR-3
SNB-75 = tested on: SNB-75
HOP-62 = tested on: HOP-62
COLO 205 = tested on: COLO 205
OVCAR-4 = tested on: OVCAR-4
SK-MEL-5 = tested on: SK-MEL-5
EKVX = tested on: EKVX
NCI-H522 = tested on: NCI-H522
IGROV-1 = tested on: IGROV-1
TK-10 = tested on: TK-10
RPMI-8226 = tested on: RPMI-8226
DLD-1 = tested on: DLD-1
U-251 = tested on: U-251
HCT-15 = tested on: HCT-15
SF-539 = tested on: SF-539
HCT-116 = tested on: HCT-116
OVCAR-5 = tested on: OVCAR-5
SK-OV-3 = tested on: SK-OV-3
HT-29 = tested on: HT-29
Hs-578T = tested on: Hs-578T
SNB-78 = tested on: SNB-78
LOX IMVI = tested on: LOX IMVI
KM12 = tested on: KM12
A498 = tested on: A498
UACC-62 = tested on: UACC-62
786-0 = tested on: 786-0
DMS-273 = tested on: DMS-273
SW-620 = tested on: SW-620
SK-MEL-2 = tested on: SK-MEL-2
RXF 393 = tested on: RXF 393
CAKI-1 = tested on: CAKI-1
PC-3 = tested on: PC-3
MDA-N = tested on: MDA-N
UO-31 = tested on: UO-31
SF-268 = tested on: SF-268
HL-60 = tested on: HL-60
NCI-H226 = tested on: NCI-H226
MDA-MB-231 = tested on: MDA-MB-231
A549 = tested on: A549
MOLT-4 = tested on: MOLT-4
NCI-H460 = tested on: NCI-H460
HOP-92 = tested on: HOP-92
SR = tested on: SR
XF498 = tested on: XF498
M14 = tested on: M14
SK-MEL-28 = tested on: SK-MEL-28
OVCAR-8 = tested on: OVCAR-8
MCF7 = tested on: MCF7
HCC 2998 = tested on: HCC 2998
RXF 631 = tested on: RXF 631
T47D = tested on: T47D
NCI/ADR-RES = tested on: NCI/ADR-RES

## O=C1/C(=C\c2ccccc2)CN(C(=O)CCN2CCCCC2)C/C1=C/c1ccccc1
ACHN
  GI50: 1.95 µM (inactive)
UACC-257
  GI50: 1.76 µM (inactive)
M19-MEL
  GI50: 0.658 µM (active)
DU-145
  GI50: 5.21 µM (inactive)
DMS-114
  GI50: 1.23 µM (inactive)
K562
  GI50: 0.179 µM (active)
NCI-H23
  GI50: 1.89 µM (inactive)
CCRF-CEM
  GI50: 0.198 µM (active)
HOP-18
  GI50: 3.03 µM (inactive)
Malme-3M
  GI50: 2.25 µM (inactive)
SF-295
  GI50: 1.67 µM (inactive)
KM-20L2
  GI50: 0.811 µM (active)
LXFL 529
  GI50: 1.32 µM (inactive)
BT-549
  GI50: 0.553 µM (active)
MDA-MB-435
  GI50: 2.05 µM (inactive)
SN12C
  GI50: 0.966 µM (active)
SNB-19
  GI50: 1.84 µM (inactive)
OVCAR-3
  GI50: 2.28 µM (inactive)
SNB-75
  GI50: 0.834 µM (active)
HOP-62
  GI50: 12.9 µM (inactive)
COLO 205
  GI50: 1.76 µM (inactive)
OVCAR-4
  GI50: 1.73 µM (inactive)
SK-MEL-5
  GI50: 1.17 µM (inactive)
EKVX
  GI50: 3.71 µM (inactive)
NCI-H522
  GI50: 0.757 µM (active)
IGROV-1
  GI50: 1.95 µM (inactive)
TK-10
  GI50: 3.93 µM (inactive)
RPMI-8226
  GI50: 0.0832 µM (active)
DLD-1
  GI50: 1.19 µM (inactive)
U-251
  GI50: 0.632 µM (active)
HCT-15
  GI50: 1.09 µM
SF-539
  GI50: 3.25 µM (inactive)
HCT-116
  GI50: 0.254 µM (active)
OVCAR-5
  GI50: 1.72 µM (inactive)
SK-OV-3
  GI50: 4.01 µM (inactive)
HT-29
  GI50: 0.443 µM (active)
Hs-578T
  GI50: 0.0153 µM (active)
SNB-78
  GI50: 2.54 µM (inactive)
LOX IMVI
  GI50: 0.283 µM (active)
KM12
  GI50: 0.379 µM (active)
A498
  GI50: 2.69 µM (inactive)
UACC-62
  GI50: 1.43 µM (inactive)
786-0
  GI50: 1.3 µM (inactive)
DMS-273
  GI50: 1.44 µM (inactive)
SW-620
  GI50: 0.167 µM (active)
SK-MEL-2
  GI50: 2 µM (inactive)
RXF 393
  GI50: 1.95 µM (inactive)
CAKI-1
  GI50: 1.71 µM (inactive)
PC-3
  GI50: 1.24 µM (inactive)
MDA-N
  GI50: 1.19 µM (inactive)
UO-31
  GI50: 1.91 µM (inactive)
SF-268
  GI50: 1.78 µM (inactive)
HL-60
  GI50: 0.313 µM (active)
NCI-H226
  GI50: 6.11 µM (inactive)
MDA-MB-231
  GI50: 1.48 µM (inactive)
A549
  GI50: 3.73 µM (inactive)
MOLT-4
  GI50: 0.231 µM (active)
NCI-H460
  GI50: 2.35 µM (inactive)
HOP-92
  GI50: 3.55 µM (inactive)
SR
  GI50: 0.315 µM (active)
XF498
  GI50: 1.73 µM (inactive)
M14
  GI50: 1.7 µM (inactive)
SK-MEL-28
  GI50: 1.97 µM (inactive)
OVCAR-8
  GI50: 0.869 µM (active)
MCF7
  GI50: 0.415 µM (active)
HCC 2998
  GI50: 1.44 µM (inactive)
RXF 631
  GI50: 1.47 µM (inactive)

## O=c1c2cc(-c3ccccc3)sc2nc2sc(-c3ccccc3)nn12
UACC-257
  GI50: > 100 µM (inactive)
M19-MEL
  GI50: > 100 µM (inactive)
DMS-114
  GI50: > 100 µM (inactive)
K562
  GI50: > 100 µM (inactive)
NCI-H23
  GI50: > 100 µM (inactive)
CCRF-CEM
  GI50: > 100 µM (inactive)
HOP-18
  GI50: > 100 µM (inactive)
Malme-3M
  GI50: > 100 µM (inactive)
SF-295
  GI50: > 100 µM (inactive)
KM-20L2
  GI50: > 100 µM (inactive)
LXFL 529
  GI50: > 100 µM (inactive)
SN12C
  GI50: > 100 µM (inactive)
SNB-19
  GI50: > 100 µM (inactive)
OVCAR-3
  GI50: > 100 µM (inactive)
SNB-75
  GI50: > 100 µM (inactive)
HOP-62
  GI50: 85.3 µM (inactive)
COLO 205
  GI50: > 100 µM (inactive)
OVCAR-4
  GI50: > 100 µM (inactive)
SK-MEL-5
  GI50: > 100 µM (inactive)
EKVX
  GI50: > 100 µM (inactive)
NCI-H522
  GI50: > 100 µM (inactive)
IGROV-1
  GI50: > 100 µM (inactive)
TK-10
  GI50: > 100 µM (inactive)
RPMI-8226
  GI50: > 100 µM (inactive)
DLD-1
  GI50: > 100 µM (inactive)
U-251
  GI50: > 100 µM (inactive)
HCT-15
  GI50: > 100 µM
SF-539
  GI50: > 100 µM (inactive)
HCT-116
  GI50: > 100 µM (inactive)
OVCAR-5
  GI50: > 100 µM (inactive)
SK-OV-3
  GI50: > 100 µM (inactive)
HT-29
  GI50: > 100 µM (inactive)
SNB-78
  GI50: > 100 µM (inactive)
LOX IMVI
  GI50: > 100 µM (inactive)
KM12
  GI50: > 100 µM (inactive)
A498
  GI50: > 100 µM (inactive)
UACC-62
  GI50: > 100 µM (inactive)
786-0
  GI50: > 100 µM (inactive)
DMS-273
  GI50: > 100 µM (inactive)
SW-620
  GI50: > 100 µM (inactive)
SK-MEL-2
  GI50: > 100 µM (inactive)
RXF 393
  GI50: > 100 µM (inactive)
CAKI-1
  GI50: > 100 µM (inactive)
UO-31
  GI50: > 100 µM (inactive)
SF-268
  GI50: > 100 µM (inactive)
HL-60
  GI50: > 100 µM (inactive)
NCI-H226
  GI50: > 100 µM (inactive)
A549
  GI50: > 100 µM (inactive)
MOLT-4
  GI50: > 100 µM (inactive)
NCI-H460
  GI50: > 100 µM (inactive)
HOP-92
  GI50: > 100 µM (inactive)
SR
  GI50: > 100 µM (inactive)
XF498
  GI50: > 100 µM (inactive)
M14
  GI50: > 100 µM (inactive)
OVCAR-8
  GI50: > 100 µM (inactive)
RXF 631
  GI50: > 100 µM (inactive)

## CN(C)/N=N/c1[nH]cnc1C(N)=O [DACARBAZINE]
UACC-257
  GI50: 49.8 µM (inactive)
M19-MEL
  GI50: 64.4 µM (inactive)
DU-145
  GI50: 71.9 µM (inactive)
DMS-114
  GI50: 71.3 µM (inactive)
K562
  GI50: 16 µM (inactive)
NCI-H23
  GI50: 93.8 µM (inactive)
CCRF-CEM
  GI50: 11.6 µM (inactive)
HOP-18
  GI50: 15.5 µM (inactive)
Malme-3M
  GI50: 41.5 µM (inactive)
SF-295
  GI50: 55.1 µM (inactive)
KM-20L2
  GI50: 53.6 µM (inactive)
LXFL 529
  GI50: 98.2 µM (inactive)
BT-549
  GI50: 51.3 µM (inactive)
MDA-MB-435
  GI50: 84.5 µM (inactive)
T47D
  GI50: > 92.3 µM (inactive)
SN12C
  GI50: 78.7 µM (inactive)
SNB-19
  GI50: > 99.1 µM (inactive)
OVCAR-3
  GI50: 55.3 µM (inactive)
SNB-75
  GI50: 35.7 µM (inactive)
HOP-62
  GI50: 24.5 µM (inactive)
COLO 205
  GI50: 78.9 µM (inactive)
OVCAR-4
  GI50: 34.8 µM (inactive)
SK-MEL-5
  GI50: 74.6 µM (inactive)
NCI-H522
  GI50: 67.1 µM (inactive)
IGROV-1
  GI50: 68.5 µM (inactive)
TK-10
  GI50: 41.6 µM (inactive)
RPMI-8226
  GI50: 19.1 µM (inactive)
DLD-1
  GI50: 56.9 µM (inactive)
U-251
  GI50: 92 µM (inactive)
HCT-15
  GI50: 94.6 µM
SF-539
  GI50: 65.6 µM (inactive)
HCT-116
  GI50: 38.5 µM (inactive)
OVCAR-5
  GI50: 81.5 µM (inactive)
SK-OV-3
  GI50: 20.6 µM (inactive)
HT-29
  GI50: 87.7 µM (inactive)
Hs-578T
  GI50: 63 µM (inactive)
SNB-78
  GI50: 63.2 µM (inactive)
LOX IMVI
  GI50: 11.7 µM (inactive)
KM12
  GI50: 92.7 µM (inactive)
UACC-62
  GI50: 35.3 µM (inactive)
786-0
  GI50: 87.9 µM (inactive)
DMS-273
  GI50: 12.8 µM (inactive)
SW-620
  GI50: 55.1 µM (inactive)
SK-MEL-2
  GI50: 9.82 µM (inactive)
RXF 393
  GI50: 82.8 µM (inactive)
CAKI-1
  GI50: 19 µM (inactive)
PC-3
  GI50: > 96.4 µM (inactive)
NCI/ADR-RES
  GI50: 66.4 µM (inactive)
MDA-N
  GI50: > 86.1 µM (inactive)
UO-31
  GI50: 32.1 µM (inactive)
SF-268
  GI50: 63.8 µM (inactive)
HL-60
  GI50: 14.9 µM (inactive)
NCI-H226
  GI50: 75.2 µM (inactive)
MDA-MB-231
  GI50: 51.3 µM (inactive)
A549
  GI50: 96.2 µM (inactive)
MOLT-4
  GI50: 20.7 µM (inactive)
NCI-H460
  GI50: 49.5 µM (inactive)
HOP-92
  GI50: 30.3 µM (inactive)
SR
  GI50: 18.9 µM (inactive)
XF498
  GI50: 21.8 µM (inactive)
M14
  GI50: 27.2 µM (inactive)
SK-MEL-28
  GI50: 86.5 µM (inactive)
OVCAR-8
  GI50: 44.5 µM (inactive)
MCF7
  GI50: 89.7 µM (inactive)
HCC 2998
  GI50: 45.8 µM (inactive)
RXF 631
  GI50: 54.1 µM (inactive)

Reference: ChEMBL document CHEMBL1201862, “PubChem BioAssay data set” (2004)
